Results as given in PubChem BioAssay AID623883 (Johns Hopkins Ion Channel Center, 2012).
Calls of active or inactive are those of the source.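 Rule for the calls: active = peak hERG inhibition over 30% at some tested dose, together with a fitted dose response curve; inactive = no hERG inhibition at any dose, or no curve fitted.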

The molecules below were run against Voltage-gated inwardly rectifying potassium channel KCNH2 (Homo sapiens) (UniProt Q12809) (assay: hERG channel inhibition, SAR follow-up, selectivity assay for KCNK9 inhibitor project, cell-based, FluxOR thallium flux, concentration-response, set 4 (AID 623883)). Details: hERG-expressing cells, FluxOR thallium flux fluorescence.
Voltage-gated inwardly rectifying potassium channel KCNH2 (Homo sapiens), sequence (Q12809 whole entry, looked up): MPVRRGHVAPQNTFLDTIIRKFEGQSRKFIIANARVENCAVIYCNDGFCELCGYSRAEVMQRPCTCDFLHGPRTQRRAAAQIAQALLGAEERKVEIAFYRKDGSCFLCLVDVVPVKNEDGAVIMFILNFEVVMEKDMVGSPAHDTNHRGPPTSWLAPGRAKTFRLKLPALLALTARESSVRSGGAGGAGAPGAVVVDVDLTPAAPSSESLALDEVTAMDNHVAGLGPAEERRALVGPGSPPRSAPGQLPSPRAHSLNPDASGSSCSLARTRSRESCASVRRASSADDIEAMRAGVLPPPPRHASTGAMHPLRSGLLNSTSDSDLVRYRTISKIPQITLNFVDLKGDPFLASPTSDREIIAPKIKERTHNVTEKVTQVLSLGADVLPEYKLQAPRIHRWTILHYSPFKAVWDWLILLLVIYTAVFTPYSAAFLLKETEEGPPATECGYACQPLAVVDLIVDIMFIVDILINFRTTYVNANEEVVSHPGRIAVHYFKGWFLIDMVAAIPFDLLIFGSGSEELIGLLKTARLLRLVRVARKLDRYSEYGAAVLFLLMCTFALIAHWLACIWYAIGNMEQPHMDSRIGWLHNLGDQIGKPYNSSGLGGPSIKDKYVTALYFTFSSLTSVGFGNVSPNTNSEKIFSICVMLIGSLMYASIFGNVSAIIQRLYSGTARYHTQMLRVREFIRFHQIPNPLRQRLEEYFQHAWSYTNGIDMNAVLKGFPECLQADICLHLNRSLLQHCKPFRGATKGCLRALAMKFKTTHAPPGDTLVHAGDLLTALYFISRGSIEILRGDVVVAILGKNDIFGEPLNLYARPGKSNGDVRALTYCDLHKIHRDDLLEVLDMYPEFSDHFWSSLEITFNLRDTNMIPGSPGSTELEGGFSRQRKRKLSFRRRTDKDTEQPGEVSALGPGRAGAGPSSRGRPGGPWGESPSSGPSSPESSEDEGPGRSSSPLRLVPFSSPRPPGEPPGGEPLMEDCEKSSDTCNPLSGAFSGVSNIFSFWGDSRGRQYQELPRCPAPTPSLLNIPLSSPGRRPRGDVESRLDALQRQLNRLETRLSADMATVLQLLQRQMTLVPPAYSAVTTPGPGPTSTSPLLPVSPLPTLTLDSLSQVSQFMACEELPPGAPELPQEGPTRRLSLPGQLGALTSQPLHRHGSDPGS

Row | Structure (SMILES) | IC50
1 | CCCC(=O)C1CCN(c2ncnc3c2CN(C(=O)c2ccc(-c4ccccc4)cc2)CC3)CC1 | 7.68 µM
2 | COc1ccc(C(=O)CCSc2nnc(-c3ccco3)n2C(C)C2CC3CCC2C3)cc1OC (stereo not given) | 15.8 µM
3 | COc1cccc(-c2nnc(SSc3nnc(-c4cccc(OC)c4)n3C(C)C3CC4CCC3C4)n2C(C)C2CC3CCC2C3)c1 (stereo not given) | 0.398 µM
4 | COc1ccc(CSc2nnc(-c3ccco3)n2C(C)C2CC3CCC2C3)cc1OC (stereo not given) | 18.2 µM
5 | C[C@H]([C@@H]1CC2CC[C@H]1C2)n1c(-c2ccsc2)n[nH]c1=S | 0.839 µM
6 | COc1ccc(NC(=O)CSc2nnc(-c3ccco3)n2C(C)C2CC3CCC2C3)cc1OC (stereo not given) | 25.8 µM
7 | COc1cccc(CCSc2nnc(-c3ccco3)n2C(C)C2CC3CCC2C3)c1 (stereo not given) | 4.52 µM
8 | CC(C1CC2CCC1C2)n1c(SCCc2ccccn2)nnc1-c1ccco1 (stereo not given) | 12.6 µM
9 | CC(C1CC2CCC1C2)n1c(SCCc2cccc(O)c2)nnc1-c1ccco1 (stereo not given) | 8.05 µM

Same assay, conditions: hERG-expressing cells, at 30 µM (top of the series)

Row | Structure (SMILES) | fluorescence ratio, lower = inhibition
10 | CC(C1CC2CCC1C2)n1c(SCCN2CCOCC2)nnc1-c1ccco1 (stereo not given) | inactive
11 | CC(C1CC2CCC1C2)n1c(SCC(=O)N2CCN(C)CC2)nnc1-c1ccco1 (stereo not given) | inactive
12 | C[C@H]([C@@H]1CC2CC[C@H]1C2)n1c(-c2ccccc2F)n[nH]c1=S | inactive
13 | CC(C1CC2CCC1C2)n1c(-c2ccco2)nn(CCc2ccncc2)c1=S (stereo not given) | inactive
14 | CC(C1CCN(C)CC1)n1c(-c2ccco2)n[nH]c1=S (stereo not given) | inactive
15 | CC([C@@H]1CC2CC[C@H]1C2)n1c(-c2ccsc2)n[nH]c1=S (stereo not given in full) | inactive
16 | COc1cccc(-c2n[nH]c(=S)n2[C@H](C)[C@@H]2CC3CC[C@H]2C3)c1 | inactive
17 | C[C@H](C1CCCCC1)n1c(-c2ccccc2F)n[nH]c1=S | inactive
18 | C[C@H](C1CCCCC1)n1c(-c2ccsc2)n[nH]c1=S | inactive
19 | C[C@H]([C@@H]1CC2CC[C@H]1C2)n1c(-c2ccsc2)n[nH]c1=S | inactive
20 | C[C@@H]([C@@H]1CC2CC[C@H]1C2)n1c(-c2ccsc2)n[nH]c1=S | inactive
21 | C[C@@H]([C@@H]1CC2CC[C@H]1C2)n1c(-c2ccco2)n[nH]c1=S | inactive
22 | CC(C1C[C@H]2CCC1C2)n1c(-c2ccsc2)n[nH]c1=S (stereo not given in full) | inactive
23 | COc1cccc(-c2n[nH]c(=S)n2[C@H](C)C2CCCCC2)c1 | inactive
24 | CC(C1CC2CCC1C2)n1c(N)nnc1-c1ccco1 (stereo not given) | inactive
25 | C[C@H]([C@@H]1CC2CC[C@H]1C2)n1c(-c2ccco2)n[nH]c1=S | inactive
